Data: patent US8569344B2, “N-piperidinyl acetamide derivatives as calcium channel blockers” (Zalicus Pharmaceuticals Ltd., priority 2008, dated 2013)
Like-named read-outs stand apart in the source and are kept apart here.

How the values were obtained:
[1] = biological target: T1, human α1H T-type channels (Homo sapiens, UniProt O95180); test: T-type calcium channel block, whole cell patch clamp in HEK cells (α1H); type: cell-based
T1 construct: expressed in transfected cells; host or cells: HEK 293
T1 sequence (O95180 whole entry): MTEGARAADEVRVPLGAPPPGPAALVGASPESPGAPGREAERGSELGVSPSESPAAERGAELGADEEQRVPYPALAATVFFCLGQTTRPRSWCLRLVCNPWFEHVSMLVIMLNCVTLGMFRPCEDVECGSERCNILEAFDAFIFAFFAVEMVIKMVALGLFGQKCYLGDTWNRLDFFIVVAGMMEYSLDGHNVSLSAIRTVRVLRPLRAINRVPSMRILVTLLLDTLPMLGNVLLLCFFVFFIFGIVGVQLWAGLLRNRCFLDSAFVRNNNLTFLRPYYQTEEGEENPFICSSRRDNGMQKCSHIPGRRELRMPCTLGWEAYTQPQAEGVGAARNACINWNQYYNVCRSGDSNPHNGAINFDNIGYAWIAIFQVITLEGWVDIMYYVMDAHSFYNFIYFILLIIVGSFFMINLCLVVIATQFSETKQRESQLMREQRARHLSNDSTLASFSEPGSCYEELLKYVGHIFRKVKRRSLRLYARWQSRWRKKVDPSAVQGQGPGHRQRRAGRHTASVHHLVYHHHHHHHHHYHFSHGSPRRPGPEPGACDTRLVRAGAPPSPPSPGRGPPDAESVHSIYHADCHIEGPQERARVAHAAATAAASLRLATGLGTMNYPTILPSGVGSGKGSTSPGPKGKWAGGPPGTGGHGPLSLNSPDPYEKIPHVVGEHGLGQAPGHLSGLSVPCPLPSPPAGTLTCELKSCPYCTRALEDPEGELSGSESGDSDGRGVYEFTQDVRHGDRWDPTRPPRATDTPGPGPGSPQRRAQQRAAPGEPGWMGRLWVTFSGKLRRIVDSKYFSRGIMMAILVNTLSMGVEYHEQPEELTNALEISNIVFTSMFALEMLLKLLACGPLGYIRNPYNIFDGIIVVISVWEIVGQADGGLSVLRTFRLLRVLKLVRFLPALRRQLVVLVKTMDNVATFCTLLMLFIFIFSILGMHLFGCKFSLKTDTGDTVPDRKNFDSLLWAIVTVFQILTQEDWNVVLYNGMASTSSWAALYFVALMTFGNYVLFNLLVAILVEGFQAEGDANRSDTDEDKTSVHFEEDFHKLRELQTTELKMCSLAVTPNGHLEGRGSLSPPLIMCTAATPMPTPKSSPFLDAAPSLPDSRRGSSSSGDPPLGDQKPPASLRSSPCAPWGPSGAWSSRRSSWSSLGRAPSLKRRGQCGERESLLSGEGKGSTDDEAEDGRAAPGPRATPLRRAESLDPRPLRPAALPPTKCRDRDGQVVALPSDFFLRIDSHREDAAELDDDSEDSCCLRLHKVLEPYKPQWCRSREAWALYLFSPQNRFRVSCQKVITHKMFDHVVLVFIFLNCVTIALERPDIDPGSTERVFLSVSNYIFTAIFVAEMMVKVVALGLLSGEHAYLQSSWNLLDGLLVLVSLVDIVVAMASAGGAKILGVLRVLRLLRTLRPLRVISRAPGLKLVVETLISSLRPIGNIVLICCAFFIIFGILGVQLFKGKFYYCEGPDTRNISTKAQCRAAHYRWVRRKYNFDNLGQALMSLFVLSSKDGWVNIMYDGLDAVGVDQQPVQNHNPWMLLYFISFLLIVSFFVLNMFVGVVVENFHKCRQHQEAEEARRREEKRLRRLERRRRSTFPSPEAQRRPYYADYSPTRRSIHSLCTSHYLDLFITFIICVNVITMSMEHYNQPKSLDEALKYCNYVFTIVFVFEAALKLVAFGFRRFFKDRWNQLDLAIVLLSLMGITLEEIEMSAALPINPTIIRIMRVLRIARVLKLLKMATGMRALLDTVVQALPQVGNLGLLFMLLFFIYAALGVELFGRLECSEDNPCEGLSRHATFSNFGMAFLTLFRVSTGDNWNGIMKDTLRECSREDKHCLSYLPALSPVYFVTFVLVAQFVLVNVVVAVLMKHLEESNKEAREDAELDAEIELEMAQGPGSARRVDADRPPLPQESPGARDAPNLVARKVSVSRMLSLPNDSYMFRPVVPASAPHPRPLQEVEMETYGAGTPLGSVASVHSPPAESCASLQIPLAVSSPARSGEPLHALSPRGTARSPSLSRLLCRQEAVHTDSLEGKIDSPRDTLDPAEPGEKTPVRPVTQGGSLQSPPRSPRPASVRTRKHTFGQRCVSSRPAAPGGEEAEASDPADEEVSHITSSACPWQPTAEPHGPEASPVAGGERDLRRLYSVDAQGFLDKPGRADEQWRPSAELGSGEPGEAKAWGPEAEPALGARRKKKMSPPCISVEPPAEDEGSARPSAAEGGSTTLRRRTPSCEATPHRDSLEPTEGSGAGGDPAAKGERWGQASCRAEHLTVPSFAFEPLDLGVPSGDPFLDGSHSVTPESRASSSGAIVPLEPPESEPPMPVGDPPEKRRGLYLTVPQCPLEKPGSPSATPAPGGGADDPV

[2] = biological target: T2, human α1G T-type channels (Homo sapiens, UniProt O43497); test: T-type calcium channel block, whole cell patch clamp in HEK cells (α1G); type: cell-based
T2 construct: expressed in transfected cells; host or cells: HEK 293
T2 sequence (O43497 whole entry): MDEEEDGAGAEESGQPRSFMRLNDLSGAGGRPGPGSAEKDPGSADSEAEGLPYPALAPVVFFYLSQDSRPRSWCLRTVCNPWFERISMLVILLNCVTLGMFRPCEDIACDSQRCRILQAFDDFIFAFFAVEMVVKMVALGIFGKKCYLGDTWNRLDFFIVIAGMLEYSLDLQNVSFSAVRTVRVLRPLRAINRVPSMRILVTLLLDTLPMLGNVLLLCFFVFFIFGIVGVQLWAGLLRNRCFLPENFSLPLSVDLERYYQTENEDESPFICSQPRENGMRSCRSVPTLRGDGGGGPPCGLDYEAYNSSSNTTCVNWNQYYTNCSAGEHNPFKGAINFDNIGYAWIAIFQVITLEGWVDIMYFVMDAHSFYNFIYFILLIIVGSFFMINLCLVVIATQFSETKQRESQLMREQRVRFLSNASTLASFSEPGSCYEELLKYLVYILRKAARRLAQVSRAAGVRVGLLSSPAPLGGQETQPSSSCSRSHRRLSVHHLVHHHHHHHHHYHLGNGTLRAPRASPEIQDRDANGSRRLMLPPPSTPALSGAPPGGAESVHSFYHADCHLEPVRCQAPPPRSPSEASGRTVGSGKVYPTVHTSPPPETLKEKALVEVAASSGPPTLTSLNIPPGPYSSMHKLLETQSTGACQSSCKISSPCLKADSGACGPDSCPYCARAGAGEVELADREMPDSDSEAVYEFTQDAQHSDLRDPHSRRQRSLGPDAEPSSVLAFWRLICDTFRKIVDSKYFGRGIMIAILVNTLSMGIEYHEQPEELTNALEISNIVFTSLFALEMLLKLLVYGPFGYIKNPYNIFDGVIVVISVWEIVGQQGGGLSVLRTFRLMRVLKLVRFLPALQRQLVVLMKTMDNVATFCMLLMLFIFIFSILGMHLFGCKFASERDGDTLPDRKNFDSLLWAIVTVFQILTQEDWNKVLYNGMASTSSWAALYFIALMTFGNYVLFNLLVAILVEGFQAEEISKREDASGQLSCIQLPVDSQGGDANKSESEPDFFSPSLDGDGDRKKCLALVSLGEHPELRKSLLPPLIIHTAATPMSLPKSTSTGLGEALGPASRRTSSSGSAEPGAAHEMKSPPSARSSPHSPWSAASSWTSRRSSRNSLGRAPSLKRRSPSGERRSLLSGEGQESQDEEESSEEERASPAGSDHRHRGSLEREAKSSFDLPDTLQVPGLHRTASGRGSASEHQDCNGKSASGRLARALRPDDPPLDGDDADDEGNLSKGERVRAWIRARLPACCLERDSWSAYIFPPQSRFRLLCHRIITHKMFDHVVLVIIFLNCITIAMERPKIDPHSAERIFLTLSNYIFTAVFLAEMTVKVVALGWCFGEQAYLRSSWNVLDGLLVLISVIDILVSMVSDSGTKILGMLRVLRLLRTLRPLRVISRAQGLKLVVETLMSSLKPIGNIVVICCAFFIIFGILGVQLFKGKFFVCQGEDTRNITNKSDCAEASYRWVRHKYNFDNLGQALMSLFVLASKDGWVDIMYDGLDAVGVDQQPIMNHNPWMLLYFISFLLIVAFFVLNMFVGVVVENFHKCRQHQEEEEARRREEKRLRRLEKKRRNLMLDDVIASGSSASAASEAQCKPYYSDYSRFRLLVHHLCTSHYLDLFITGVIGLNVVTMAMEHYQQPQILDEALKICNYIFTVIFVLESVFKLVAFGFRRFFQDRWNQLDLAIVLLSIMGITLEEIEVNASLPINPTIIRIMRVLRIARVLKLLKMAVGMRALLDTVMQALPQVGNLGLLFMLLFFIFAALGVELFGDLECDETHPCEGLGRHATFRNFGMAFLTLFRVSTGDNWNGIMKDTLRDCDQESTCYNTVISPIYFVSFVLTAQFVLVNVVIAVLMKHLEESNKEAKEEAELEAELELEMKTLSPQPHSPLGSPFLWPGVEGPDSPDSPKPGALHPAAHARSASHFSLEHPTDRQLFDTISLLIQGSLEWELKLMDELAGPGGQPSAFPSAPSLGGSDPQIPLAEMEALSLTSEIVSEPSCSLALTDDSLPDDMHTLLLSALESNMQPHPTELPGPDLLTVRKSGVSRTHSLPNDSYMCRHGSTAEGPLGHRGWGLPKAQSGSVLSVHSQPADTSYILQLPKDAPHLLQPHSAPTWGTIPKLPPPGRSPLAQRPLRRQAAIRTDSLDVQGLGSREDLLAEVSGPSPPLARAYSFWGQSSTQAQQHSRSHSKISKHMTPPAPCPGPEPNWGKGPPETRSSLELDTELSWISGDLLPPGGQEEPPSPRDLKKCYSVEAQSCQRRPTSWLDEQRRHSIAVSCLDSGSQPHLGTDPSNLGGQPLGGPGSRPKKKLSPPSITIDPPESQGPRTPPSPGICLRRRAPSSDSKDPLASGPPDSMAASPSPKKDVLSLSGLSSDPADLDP

[3] = HEK cells, patch clamp, mainly non-inactivated protocol, values above 10 μM shown as 10 μM, read-out: T-type Calcium Channel Block α1H IC50
[4] = HEK cells, patch clamp, mainly non-inactivated protocol, values above 10 μM shown as 10 μM, below 0.30 μM shown as 0.30 μM, read-out: T-type Calcium Channel Block α1G IC50

SMILES	IC50 [1, 3]	IC50 [2, 4]	IC50 [1]	IC50 [2]
O=C(NCC1CCN(CCNS(=O)(=O)C2CC2)CC1)c1ccc(C(F)(F)F)c(F)c1 [Compound 387, N-((1-(2-(cyclopropanesulfonamido)ethyl)piperidin-4-yl)methyl)-3-fluoro-4-(trifluoromethyl)benzamide]	720 nM	990 nM	–	–
CC(C)(C)OC(=O)NCCN1CCC(CNC(=O)c2cccc(Cl)c2)CC1 [Compound 48, tert-butyl 2-(4-((3-chlorobenzamido)methyl)piperidin-1-yl)ethylcarbamate]	790 nM	1570 nM	–	–
CC(C)(C)C(C)(O)C(=O)N1CCC(CNC(=O)c2cc(C(F)(F)F)cc(C(F)(F)F)c2)CC1 (stereo not shown) [Compound 89, N-((1-(2-hydroxy-2,3,3-trimethylbutanoyl)piperidin-4-yl)methyl)-3,5-bis(trifluoromethyl)benzamide]	> 10000 nM	4100 nM	–	–
O=C(NCC1CCN(C(=O)CN2CCCC(C(F)(F)F)C2)CC1)c1cc(F)cc(C(F)(F)F)c1 (stereo not shown) [Compound 282, 3-fluoro-5-(trifluoromethyl)-N-((1-(2-(3-(trifluoromethyl)piperidin-1-yl)acetyl)piperidin-4-yl)methyl)benzamide]	7160 nM	2500 nM	–	–
O=C(NCC1CCN(C(=O)CN2CCCC(O)C2)CC1)c1cc(C(F)(F)F)cc(C(F)(F)F)c1 (stereo not shown) [Compound 240, N-((1-(2-(3-hydroxypiperidin-1-yl)acetyl)piperidin-4-yl)methyl)-3,5-bis(trifluoromethyl)benzamide]	> 10000 nM	> 10000 nM	–	–
CC(C)(C)C(O)CN1CCC(CC(=O)Nc2cc(F)cc(C(F)(F)F)c2)CC1 (stereo not shown) [Compound 169, N-(3-fluoro-5-(trifluoromethyl)phenyl)-2-(1-(2-hydroxy-3,3-dimethylbutyl)piperidin-4-yl)acetamide]	230 nM	< 300 nM	–	–
Cc1cc(C)cc(C(=O)NCC2CCN(CCNC(=O)C(C)(C)C)CC2)c1 [Compound 295, 3,5-dimethyl-N-((1-(2-pivalamidoethyl)piperidin-4-yl)methyl)benzamide]	1260 nM	1340 nM	–	–
Cc1cc(F)cc(C(=O)NCC2CCN(CCNS(=O)(=O)C(F)(F)F)CC2)c1 [Compound 331, 3-fluoro-5-methyl-N-((1-(2-(trifluoromethylsulfonamido)ethyl)piperidin-4-yl)methyl)benzamide]	> 10000 nM	> 10000 nM	–	–
CC(C)(C)C(=O)NCCN1CCC(CNC(=O)c2cc(F)cc(F)c2)CC1 [Compound 293, 3,5-difluoro-N-((1-(2-pivalamidoethyl)piperidin-4-yl)methyl)benzamide]	4070 nM	5180 nM	–	–
O=C(NCC1CCN(CC2(NS(=O)(=O)C3CC3)CCCC2)CC1)c1cc(C(F)(F)F)cc(C(F)(F)F)c1 [Compound 2, N-((1-((1-(cyclopropanesulfonamido)cyclopentyl)methyl)piperidin-4-yl)methyl)-3,5-bis(trifluoromethyl)benzamide]	540 nM	< 300 nM	–	–
CC(C)(C(=O)NCCN1CCC(CNC(=O)c2cc(F)cc(C(F)(F)F)c2)CC1)C(F)(F)F [Compound 339, 3-fluoro-N-((1-(2-(3,3,3-trifluoro-2,2-dimethylpropanamido)ethyl)piperidin-4-yl)methyl)-5-(trifluoromethyl)benzamide]	130 nM	< 300 nM	–	–
C[C@H]1CC[C@H](NCC(=O)N2CCC(CNC(=O)c3cc(C(F)(F)F)cc(C(F)(F)F)c3)CC2)CC1 [Compound 264, N-((1-(2-((1r,4r)-4-methylcyclohexylamino)acetyl)piperidin-4-yl)methyl)-3,5-bis(trifluoromethyl)benzamide]	530 nM	< 300 nM	–	–
CC.CC(F)CNC(=O)CN1CCC(CNC(=O)c2cc(F)cc(Cl)c2)CC1 (stereo not shown) [Compound 553, 3-chloro-5-fluoro-N-((1-(2-(2-fluoropropylamino)-2-oxoethyl)piperidin-4-yl)methyl)benzamide compound with ethane (1:1)]	–	–	1730 nM	2520 nM
CC(C)(C)NC(=O)NC1(CN2CCC(CNC(=O)c3cc(C(F)(F)F)cc(C(F)(F)F)c3)CC2)CCCC1 [Compound 12, N-((1-((1-(3-tert-butylureido)cyclopentyl)methyl)piperidin-4-yl)methyl)-3,5-bis(trifluoromethyl)benzamide]	1660 nM	480 nM	–	–
O=C(NCC1CCN(CCNS(=O)(=O)C2CCC2)CC1)c1cc(F)cc(C(F)(F)F)c1 [Compound 306, N-((1-(2-(cyclobutanesulfonamido)ethyl)piperidin-4-yl)methyl)-3-fluoro-5-(trifluoromethyl)benzamide]	390 nM	340 nM	–	–
CC(C)(C)C(CN1CCC(CC(=O)NC(c2cccc(F)c2)c2cccc(F)c2)CC1)NS(=O)(=O)C1CC1 (stereo not shown) [Compound 221, N-(bis(3-fluorophenyl)methyl)-2-(1-(2-(cyclopropanesulfonamido)-3,3-dimethylbutyl)piperidin-4-yl)acetamide]	> 10000 nM	4080 nM	–	–
CC(C)(C)NCC(=O)N1CCC(CNC(=O)c2cc(C(F)(F)F)cc(C(F)(F)F)c2)CC1 [Compound 239, N-((1-(2-(tert-butylamino)acetyl)piperidin-4-yl)methyl)-3,5-bis(trifluoromethyl)benzamide]	1730 nM	< 300 nM	–	–
CC(C)(C)C(O)CN1CCC(CC(=O)NCc2ccc(Oc3ccccc3)cc2)CC1 (stereo not shown) [Compound 174, 2-(1-(2-hydroxy-3,3-dimethylbutyl)piperidin-4-yl)-N-(4-phenoxybenzyl) acetamide]	> 10000 nM	2480 nM	–	–
CC(C)(C)OC(=O)NCCN1CCC(CNC(=O)c2cccc(OC(F)(F)F)c2)CC1 [Compound 44, tert-butyl 2-(4-((3-(trifluoromethoxy)benzamido)methyl)piperidin-1-yl)ethylcarbamate]	320 nM	620 nM	–	–
O=C(NCC1CCN(CC2(NS(=O)(=O)CCC(F)(F)F)CC2)CC1)c1cc(C(F)(F)F)cc(C(F)(F)F)c1 [Compound 360, 3,5-bis(trifluoromethyl)-N-((1-((1-(3,3,3-trifluoropropylsulfonylamido)cyclopropyl)methyl)piperidin-4-yl)methyl)benzamide]	250 nM	< 300 nM	–	–
CC(C)(C)Oc1cccc(C(=O)NCC2CCN(CCNS(=O)(=O)C3CC3)CC2)c1 [Compound 229, 3-tert-butoxy-N-((1-(2-(cyclopropanesulfonamido)ethyl)piperidin-4-yl)methyl)benzamide]	> 10000 nM	> 10000 nM	–	–
CC(C)S(=O)(=O)NCCN1CCC(CNC(=O)c2cc(F)cc(Cl)c2)CC1 [Compound 385, 3-chloro-5-fluoro-N-((1-(2-(1-methylethylsulfonamido)ethyl)piperidin-4-yl)methyl)benzamide]	800 nM	580 nM	–	–

Continued, in another order:

IC50 [1, 3]	IC50 [2, 4]	SMILES	IC50 [1]	IC50 [2]
> 10000 nM	> 10000 nM	CS(=O)(=O)c1cc(C(=O)NCC2CCN(CC(=O)NC3CCCC3)CC2)cc(C(F)(F)F)c1 [Compound 585, N-((1-(2-(cyclopentylamino)-2-oxoethyl)piperidin-4-yl)methyl)-3-(methylsulfonyl)-5-(trifluoromethyl)benzamide]	–	–
8540 nM	> 10000 nM	CC1(NC(=O)CN2CCC(CNC(=O)c3ccccc3)CC2)CCC1 [Compound 528, N-((1-(2-(1-methylcyclobutylamino)-2-oxoethyl)piperidin-4-yl)methyl) benzamide]	–	–
270 nM	< 300 nM	COc1cc(OC)cc(C(=O)NCC2CCN(CC(=O)N3CCC[C@H]3C(F)(F)F)CC2)c1 [Compound 466, (S)-3,5-dimethoxy-N-((1-(2-oxo-2-(2-(trifluoromethyl)pyrrolidin-1-yl)ethyl)piperidin-4-yl)methyl)benzamide]	–	–
100 nM	< 300 nM	COCC(C)(C)NC(=O)CN1CCC(CNC(=O)c2cc(F)cc(C(F)(F)F)c2)CC1 [Compound 564, 3-fluoro-N-((1-(2-(1-methoxy-2-methylpropan-2-ylamino)-2-oxoethyl)piperidin-4-yl)methyl)-5-(trifluoromethyl)benzamide]	–	–
60 nM	< 300 nM	O=C(NCC1CCN(CCNC(=O)C2(C(F)(F)F)CCC2)CC1)c1cc(C(F)(F)F)cc(C(F)(F)F)c1 [Compound 434, 3,5-bis(trifluoromethyl)-N-((1-(2-(1-(trifluoromethyl)cyclobutanecarboxamido)ethyl)piperidin-4-yl)methyl)benzamide]	–	–
150 nM	< 300 nM	CC1(NC(=O)CN2CCC(CNC(=O)c3cccc(C(F)(F)F)c3)CC2)CCC1 [Compound 479, N-((1-(2-(1-methylcyclobutylamino)-2-oxoethyl)piperidin-4-yl)methyl)-3-(trifluoromethyl)benzamide]	–	–
660 nM	400 nM	COc1cc(F)cc(C(=O)NCC2CCN(CC(=O)NC3(C4CCOCC4)CC3)CC2)c1 [Compound 562, 3-fluoro-5-methoxy-N-((1-(2-oxo-2-(1-(tetrahydro-2H-pyran-4-yl)cyclopropylamino)ethyl)piperidin-4-yl)methyl)benzamide]	–	–
> 10000 nM	> 10000 nM	Cc1cc(F)cc(C(=O)NCC2CCN(CC(=O)NC(C)C)CC2)c1 [Compound 437, 3-fluoro-N-((1-(2-(isopropylamino)-2-oxoethyl)piperidin-4-yl)methyl)-5-methylbenzamide]	–	–
170 nM	< 300 nM	O=C(NCC1CCN(CC(=O)N2CCC[C@H]2C(F)(F)F)CC1)c1cccc(C(F)(F)F)c1 [Compound 467, (S)-N-((1-(2-oxo-2-(2-(trifluoromethyl)pyrrolidin-1-yl)ethyl)piperidin-4-yl)methyl)-3-(trifluoromethyl)benzamide]	–	–
190 nM	< 300 nM	COc1cc(OC)cc(C(=O)NCC2CCN(CCNC(=O)C(C)(C)C(F)(F)F)CC2)c1 [Compound 491, 3,5-dimethoxy-N-((1-(2-(3,3,3-trifluoro-2,2-dimethylpropanamido)ethyl)piperidin-4-yl)methyl)benzamide]	–	–
